Calls of active or inactive are those of the source. The rule behind the calls is not given here.
Experiments:
Format in all cases: functional, cell-based
HL-60 [1] = test: Induction of apoptosis in human HL60 cells assessed as reduction of cell viability at up to 30 uM after 4 hrs by alamar blue assay
HL-60 [2] = test: Induction of apoptosis in human HL60 cells assessed as reduction of cell viability after 4 hrs by alamar blue assay
HL-60 [3] = test: Induction of apoptosis in human HL60 cells assessed as nuclear fragmentation at 0.3 uM after 4 hrs using DAPI/PI by confocal laser microscopy analysis
HL-60 [4] = test: Induction of apoptosis in human HL60 cells assessed as necrotic cell death at 30 uM after 4 hrs using DAPI/PI by confocal laser microscopy analysis
HL-60 [5] = test: Induction of apoptosis in human HL60 cells assessed as DNA ladder formation at 0.3 uM after 4 hrs by DNA electrophoresis
HL-60 [6] = test: Induction of apoptosis in human HL60 cells assessed as increase of cellular ROS level
HL-60 [7] = test: Induction of apoptosis in human HL60 cells assessed as activation of caspase 3 at 0.3 uM after 2 hrs by Western blot analysis
HL-60 [8] = test: Induction of apoptosis in human HL60 cells assessed as activation of caspase 3 at 0.3 uM after 2 hrs by Western blot analysis in presence of caspase 9 inhibitor […]
HL-60 [9] = test: Induction of apoptosis in human HL60 cells assessed as DNA ladder formation at 30 uM after 4 hrs by DNA electrophoresis
HL-60 [10] = test: Induction of apoptosis in human HL60 cells assessed as activation of caspase 3 at 0.3 uM after 2 hrs by Western blot analysis in presence of caspase inhibitor Z-VAD
HL-60 [11] = test: Induction of apoptosis in human HL60 cells at 0.3 uM in presence of caspase 8 inhibitor Z-IETD
HL-60 [12] = test: Induction of apoptosis in human HL60 cells at 0.3 uM in presence of caspase 9 inhibitor […]
HL-60 [13] = test: Induction of apoptosis in human HL60 cells assessed as activation of caspase 3 at 0.3 uM after 2 hrs by Western blot analysis in presence of caspase 8 inhibitor Z-IETD
HL-60 [14] = test: Potentiation of FAS-ligand-induced apoptosis in human HL60 cells at 30 uM
HL-60 [15] = test: Potentiation of TNF-alpha-ligand-induced apoptosis in human HL60 cells at 30 uM

CN1C(=O)[C@H]2C[C@]3([C@]45C[C@@H]6C(=O)N(C)[C@H](CO)C(=O)N6[C@H]4Nc4ccccc45)c4ccccc4N[C@@H]3N2C(=O)[C@H]1CO
Activity (HL-60 [1]): inactive

CN1C(=O)[C@@]23C[C@]4([C@]56C[C@@]78SS[C@@](CO)(C(=O)N7[C@H]5Nc5ccccc56)N(C)C8=O)c5ccccc5N[C@@H]4N2C(=O)[C@]1(CO)SS3
Activity (HL-60 [2]): Dose-dependent effect | Activity (HL-60 [3]): Active | Activity (HL-60 [4]): Active | Activity (HL-60 [5]): inactive | Activity (HL-60 [6]): inactive | Activity (HL-60 [7]): Active

CN1C(=O)[C@]23C[C@@]4([C@@]56C[C@]78SS[C@](CO)(C(=O)N7[C@@H]5Nc5ccccc56)N(C)C8=O)c5ccccc5N[C@H]4N2C(=O)[C@@]1(CO)SS3
Activity (HL-60 [8]): Active | Activity (HL-60 [3]): Active | Activity (HL-60 [4]): Active | Activity (HL-60 [5]): Active | Activity (HL-60 [9]): inactive | Activity (HL-60 [6]): inactive | Activity (HL-60 [7]): Active | Activity (HL-60 [10]): inactive | Activity (HL-60 [11]): inactive | Activity (HL-60 [12]): Active | Activity (HL-60 [13]): inactive | Activity (HL-60 [14]): inactive | Activity (HL-60 [15]): inactive

— ChEMBL document CHEMBL1221299, “Unnatural enantiomer of chaetocin shows strong apoptosis-inducing activity through caspase-8/caspase-3 activation” (Bioorg Med Chem Lett, 2010)
